From patent publication US11053226B2, “KRAS G12C inhibitors and methods of using the same” (Amgen Inc., priority 2018, dated 2021)
pIC50: −log10 of the molar value. Read-outs that look alike come from different tables or passages of the source.

What was measured:
[1] = test system: Phosphorylation of ERK1/2 in MIA PaCa-2 cells; test: Phospho-ERK1/2 MSD Assay; type: cell-based; settings: Homo sapiens, MIA PaCa-2, 4 h, read-out: pERK IC50 (4 h, MiaPaCa-2), 4 h compound treatment; MiaPaCa-2 cells
Procedure: For compounds in Table 9, the following assay conditions were employed:
Phospho-ERK1/2 MSD Assay:
Sixteen hours prior to compound treatment, MIA PaCa-2 cells were seeded in 96-well cell culture plates at a density of 25,000 cells/well and incubated at 37° C., 5% CO2. […] Following compound treatment, cells were stimulated with 10 ng/mL EGF (Roche 11376454001) for 10 min, washed with ice-cold Dulbecco's phosphate-buffered saline, no Ca^2+ or Mg^2+ (ThermoFisher Scientific 14190144), and then lysed in RIPA buffer (50 mM Tris-HCl pH 7.5, 1% Igepal, 0.5% sodium deoxycholate, 150 mM NaCl, and 0.5% sodium dodecyl sulfate) containing protease inhibitors (Roche 4693132001) and phosphatase inhibitors (Roche 4906837001). […] Assay plates were read on a Meso Scale Discovery Sector Imager 6000, and data were analyzed using a 4-parameter logistic model to calculate IC50 values.

[2] = test system: Phosphorylation of ERK1/2 in A549 cells; test: Phospho-ERK1/2 MSD Assay (A549); type: cell-based; settings: read-out: pERK IC50 (4 h, A549), 4 h compound treatment

SMILES | pIC50 [1] | pIC50 ([2]; Homo sapiens, A549, 4 h) | pIC50 [2]
C=CC(=O)N1CC(NC(=O)Cn2c(C3CC3)c(C(=O)N3CCOC(C)(c4ccccc4)C3)c3cc(Cl)cc(C)c32)C1 (centres unmarked) [Example 31] | 5.57 | < 4.00 | –
C=CC(=O)N1CC(NC(=O)Cn2cc(C(=O)N3CCc4c(Br)cc(C)cc4C3)c3cc(Br)ccc32)C1 [Example 120] | 4.51 | 4.55 | –
C=CC(=O)N1CC(NC(=O)Cn2cc(C(=O)N3CCN(c4ccc([N+](=O)[O-])cc4)CC3)c3cc(Br)ccc32)C1 [Example 166] | < 4.00 | < 4.00 | –
C=CC(=O)N1CC(NC(=O)Cn2c(C3CC3)c(C(=O)N3CCC(C)(C)C3)c3cc(Cl)cc(C)c32)C1 [Example 20] | 5.71 | < 4.00 | –
C=CC(=O)N1CC(NC(=O)Cn2cc(C(=O)N3CCN(c4ccc(OC)cn4)CC3)c3cc(Br)ccc32)C1 [Example 93] | 4.78 | < 4.00 | –
C=CC(=O)N1CC(NC(=O)Cn2cc(C(=O)NCCc3nccs3)c3cc(Br)ccc32)C1 [Example 123] | 4.49 | < 4.00 | –
C=CC(=O)N1CC(NC(=O)Cn2cc(C(=O)On3nnc4cccnc43)c3cc(Br)ccc32)C1 [Example 175] | < 4.00 | < 4.00 | –
C=CC(=O)N1CC(NC(=O)Cn2cc(C(=O)N3CCc4c(C#N)cccc4C3)c3cc(Br)ccc32)C1 [Example 134] | 4.42 | < 4.00 | –
C=CC(=O)N1CC(NC(=O)Cn2cc(C(=O)NCCCc3nc(C)cs3)c3cc(Br)ccc32)C1 [Example 172] | < 4.00 | < 4.00 | –
C=CC(=O)N1CC(NC(=O)Cn2cc(C(=O)N3CCN(c4cc(C)ccn4)CC3)c3cc(Br)ccc32)C1 [Example 79] | 4.93 | < 4.00 | –
C=CC(=O)N1CC(NC(=O)Cn2cc(C(=O)N3CCN(c4ccc(CN(C)C)cn4)CC3)c3cc(Br)ccc32)C1 [Example 159] | 4.24 | < 4.00 | –
C=CC(=O)N1CC(NC(=O)Cn2cc(C(=O)N3CCc4cc(C(=O)OC)ccc4C3)c3cc(Br)ccc32)C1 [Example 124] | 4.48 | < 4.00 | –
C=CC(=O)N1CC(NC(=O)Cn2cc(C(=O)NCCN(C)c3cccc(C)c3)c3cc(Br)ccc32)C1 [Example 173] | < 4.00 | < 4.00 | –
C=CC(=O)N1CC(N(CC)C(=O)Cn2c(C)c(C(=O)N3CCc4ccccc4C3C)c3cc(Br)cc(C)c32)C1 (centres unmarked) [Example 72] | 4.97 | 4.20 | –
C=CC(=O)N1CC(NC(=O)Cn2cc(C(=O)N3CCN(c4ccc([N+](=O)[O-])cn4)CC3)c3cc(Br)ccc32)C1 [Example 99] | 4.72 | < 4.00 | –
C=CC(=O)N1CC(NC(=O)Cn2c(C)c(C(=O)N3CCN(c4ccc(C#N)cn4)C[C@@H]3C)c3cc(Br)ccc32)C1 [Example 81] | 4.90 | < 4.00 | –
C=CC(=O)N1CC(NC(=O)Cn2cc(C(=O)NCCc3c(OC)ccc4ccccc34)c3cc(Br)ccc32)C1 [Example 168] | < 4.00 | < 4.00 | –
C=CC(=O)N1CC(NC(=O)Cn2cc(C(=O)N3CCc4c(ccc(Cl)c4Cl)C3)c3cc(Br)ccc32)C1 [Example 96] | 4.76 | 4.52 | –
C=CC(=O)N1CC(NC(=O)Cn2cc(C(=O)N3CCc4cc(Br)ccc4C3)c3cc(Br)ccc32)C1 [Example 104] | 4.66 | – | 4.84
C=CC(=O)N1CC(N(C)C(=O)Cn2c(C)c(C(=O)N3CCN(c4ccc(C)cn4)CC3)c3cc(Br)ccc32)C1 [Example 47] | 5.38 | < 4.00 | –
C=CC(=O)N1CC(NC(=O)Cn2cc(C(=O)NCCOc3c(C)cccc3C)c3cc(Cl)cc(Cl)c32)C1 [Example 37] | 5.48 | < 4.00 | –
C=CC(=O)N1CC(NC(=O)Cn2cc(C(=O)NCC(c3sccc3C)N(C)C)c3cc(Br)ccc32)C1 (centres unmarked) [Example 127] | 4.46 | < 4.00 | –
C=CC(=O)N1CC(NC(=O)Cn2c(C)c(C(=O)N3C(C)COCC3C)c3cc(Br)cc(C)c32)C1 (centres unmarked) [Example 26] | 5.61 | < 4.48 | –
C=CC(=O)N1CC(NC(=O)Cn2cc(C(=O)NCCOc3ccccc3C)c3cc(Br)ccc32)C1 [Example 156] | 4.27 | < 4.00 | –
C=CC(=O)N1CC(NC(=O)Cn2cc(C(=O)NCCc3nc4ccccc4n3C)c3cc(Br)ccc32)C1 [Example 174] | < 4.00 | < 4.00 | –
